# How the values were obtained:
# Format in all cases: in vivo, human
# [1] = test system: high-risk patients diagnosed with primary osteoporosis; experiment: Vertebral fractures (new+worsening), Kaplan-Meier estimation, Working Example 2; conditions: after 72 weeks; FAS; 200 units once a week
# Description: (§1) The incidence of bone fractures was checked by frontal and lateral x-rays of the fourth thoracic to the fourth lumbar spine taken at the start and every 24 weeks thereafter.
# The incidence of vertebral fractures (new±worsening) after 72 weeks by Kaplan-Meier estimation in the FAS of the fracture study was 3.5% in the PTH200 group and 16.3% in the P group. The incidence with 200 units of this drug was lower than in the placebo group (log rank test, p<0.0001). […] When the six-month vertebral fracture (new+worsening) incidence was compared between groups, the incidence of the PTH200 group was lower than that of the P group in all divisions consisting of within 24 weeks, 24 to 48 weeks, and 48 to 72 weeks.
# [2] = test system: high-risk patients diagnosed with primary osteoporosis; experiment: New vertebral fractures (incl. multiple), Working Example 2 (200 units once a week vs placebo, 72 weeks); conditions: for New vertebral fractures: Incidence (%) / New vertebral fractures: No. of subjects: 72 weeks; for No. with fractures: new vertebral fractures
# Description: The above patients also took two tablets of a calcium agent once a day after dinner. […] The preparation contained precipitated calcium carbonate, magnesium carbonate, cholecalciferol (vitamin D3), and the like as components and is marketed under the trade name New Calcichew (trademark) D3″ (sold by: Daiichi Sankyo Health Care, manufactured and sold by: Nitto Pharmaceutical Industries, Ltd.).
# The numbers of patients administered the test drug and control were 290 (also sometimes referred to as the test drug group in the working example) and 288 (also sometimes referred to as the control group in the working example), respectively. The total number administered was 578. However, the number in each group sometimes differs depending on the type of test and is expressed, for example, by (n=**) or the number evaluated, or the like.
# as §1
# Here, “multiple vertebral fractures” was defined as two or more new vertebral fractures. When the incidence of multiple vertebral fractures (number of cases) was compared in the test drug group (n=261) and control group (n=281) after 72 weeks of administration, it was 2.1% (6 cases) in the control group and 0.8% (2 cases) in the test drug group.
# [3] = test system: patients diagnosed with primary osteoporosis; experiment: Fractures at sites other than the vertebrae (roentgen films), Working Example 1; conditions: fractures of sites other than the vertebrae; high-risk patients; 5 units once a week
# Method: Both the 5 and 100 unit groups were administered two tablets of a calcium agent (containing 500 mg of precipitated calcium carbonate [200 mg as calcium] per tablet) once a day.
# The osteoporosis patients were classified as condition shown in Table 1 based on the bone fracture risk factors present, as in Non-patent Reference 13, and compared. High-risk patients were defined as having all three factors involving age, prevalent vertebral fractures, and bone density or bone atrophy; low-risk patients were defined as other than the above.
# [4] = No. of fractures: Five or more, 200 units once a week
# [5] = No. of fractures: Four, 200 units once a week
# [6] = No. of fractures: One, 200 units once a week
# [7] = No. of fractures: Three, 200 units once a week
# [8] = No. of fractures: Two, 200 units once a week
# [9] = history of Alfacalcidol, 200 units once a week
# [10] = history of Calcitriol, 200 units once a week
# [11] = history of Calcium L-aspartate, 200 units once a week
# [12] = history of Calcium lactate, 200 units once a week
# [13] = history of Elcatonin, 200 units once a week
# [14] = history of Menatetrenone, 200 units once a week
# [15] = history of Raloxifene hydrochloride, 200 units once a week
# [16] = patients taking glucocorticoid, 200 units once a week
# [17] = two or more new vertebral fractures, after 72 weeks, 200 units once a week
substance,measurement,setting,value
teriparatide acetate,Incidence of vertebral fractures (new±worsening) by Kaplan-Meier estimation,[1],3.5%
same,Occurrence of new vertebral fractures after 48 weeks,"[2]; 48 to 72 weeks division, 200 units once a week",no new vertebral fractures occurred after 48 weeks
same,"New vertebral fractures, No. with fractures","[2]; FAS, No. evaluated 261",7
same,Difference between PTH200 group and P group after 72 W (%),"[2]; FAS, incidence of new vertebral fractures after 72 W",11.4%
same,New vertebral fractures: Incidence (%),[2]; [4],0.0%
same,New vertebral fractures: No. of subjects,[2]; [4],0
same,New vertebral fractures: Incidence (%),[2]; [5],0.0%
same,New vertebral fractures: No. of subjects,[2]; [5],0
same,New vertebral fractures: Incidence (%),[2]; [6],1.9%
same,New vertebral fractures: No. of subjects,[2]; [6],5
same,New vertebral fractures: Incidence (%),[2]; [7],0.0%
same,New vertebral fractures: No. of subjects,[2]; [7],0
same,New vertebral fractures: Incidence (%),[2]; [8],0.8%
same,New vertebral fractures: No. of subjects,[2]; [8],2
same,"New vertebral fractures, No. with fractures","[2]; Time after administration >24 W-≦48 W, No. evaluated 219",2
same,"New vertebral fractures, No. with fractures","[2]; Time after administration >48 W-≦72 W, No. evaluated 206",0
same,"New vertebral fractures, No. with fractures","[2]; Time after administration ≦24 W, No. evaluated 261",6
same,Incidence of new vertebral fractures (%),"[2]; creatinine clearance at start Abnormal (<80), After 24 W, 200 units once a week",2.8%
same,Incidence of new vertebral fractures (%),"[2]; creatinine clearance at start Abnormal (<80), After 48 W, 200 units once a week",3.4%
same,Incidence of new vertebral fractures (%),"[2]; creatinine clearance at start Abnormal (<80), After 72 W, 200 units once a week",3.4%
same,Incidence of new vertebral fractures (%),"[2]; creatinine clearance at start Normal (≧80), After 24 W, 200 units once a week",0.0%
same,Incidence of new vertebral fractures (%),"[2]; creatinine clearance at start Normal (≧80), After 48 W, 200 units once a week",0.0%
same,Incidence of new vertebral fractures (%),"[2]; creatinine clearance at start Normal (≧80), After 72 W, 200 units once a week",0.0%
same,New vertebral fractures: No,[2]; [9],62
same,New vertebral fractures: Yes,[2]; [9],1
same,New vertebral fractures: No,[2]; [10],7
same,New vertebral fractures: Yes,[2]; [10],1
same,New vertebral fractures: No,[2]; [11],28
same,New vertebral fractures: Yes,[2]; [11],1
same,New vertebral fractures: No,[2]; [12],8
same,New vertebral fractures: Yes,[2]; [12],0
same,New vertebral fractures: No,[2]; [13],35
same,New vertebral fractures: Yes,[2]; [13],2
same,New vertebral fractures: No,[2]; [14],6
same,New vertebral fractures: Yes,[2]; [14],0
same,New vertebral fractures: No,[2]; [15],20
same,New vertebral fractures: Yes,[2]; [15],0
same,No. with fractures,"[2]; Complication (diabetes): No, 200 units once a week",7
same,No. with fractures,"[2]; Complication (diabetes): Yes, 200 units once a week",0
same,No. with fractures,"[2]; Complication (hyperlipidemia): No, 200 units once a week",4
same,No. with fractures,"[2]; Complication (hyperlipidemia): Yes, 200 units once a week",3
same,No. with fractures,"[2]; Complication (hypertension): No, 200 units once a week",3
same,No. with fractures,"[2]; Complication (hypertension): Yes, 200 units once a week",4
same,No. with fractures,"[2]; Prior osteoporosis treatment (no), 200 units once a week",4
same,No. with fractures,"[2]; Prior osteoporosis treatment (yes), 200 units once a week",3
same,No. with fractures,"[2]; creatinine clearance at start Abnormal (<80), 200 units once a week",6
same,No. with fractures,"[2]; creatinine clearance at start Normal (≧80), 200 units once a week",0
same,"Existence of new vertebral fractures, Fracture: no",[2]; [16],29
same,"Existence of new vertebral fractures, Fracture: yes",[2]; [16],0
same,Incidence of multiple vertebral fractures,[2]; [17],0.8%
same,Multiple vertebral fractures (number of cases),[2]; [17],2 cases
same,No. with fractures (persons),[3],6 persons

# From patent US20140249084A1, “PTH-CONTAINING THERAPEUTIC/PROPHYLACTIC AGENT FOR OSTEOPOROSIS, CHARACTERIZED IN THAT PTH IS ADMINISTERED ONCE A WEEK IN A UNIT DOSE OF 100 TO 200 UNITS” (ASAHI KASEI PHARMA CORPORATION, priority 2009, published 2014)
